Test results published in patent publication US6998411B2, “2-Methylheptylisonicotinate and process for production thereof” (Council of Scientific and Industrial Research, priority 2001, dated 2006).
In brackets after ≈: the same amount, converted by molar mass. Read-outs that look alike come from different tables or passages of the source.

Legend:
Format in all cases: cell-based
Bacillus subtilis [1] = assay: agar cup assay, zone of inhibition; conditions: purified compound, 10 μg of the substance
Description: (§1) 2-Methylheptylisonicotinate of formula 1 was bioassayed following agar cup assay method (Grammer, 1976). […] The antibacterial activity of the bioactive molecule was tested against dominant bacterial strains such as Bacillus subtilis, E. coli, Shigella sp., Klebsiella sp. and Proteus mirabilis. Maximum inhibition was recorded in E. coli (30 mm in diameter) and Proteus mirabilis (28 mm). […] Maximum zone of inhibition was recorded in Fusarium solani and F. semitechtum (26 mm with 10 μg of the substance), and in F. oxysporum inhibition zone was 25 mm. Similar inhibition was also observed in F. moniliformae and Rhizoctonia solani (24 mm and 22 mm) respectively (Tables 2, 3 & 4). The above antibiotic activity against dominant pathogens is the clear indication of the potential application of the compound for both agricultural and medical purposes.
as §1, with “2-Methylheptylisonicotinate” for “2-Methylheptylisonicotinate of formula”, “(Table” for “(Tables”, “4).” for “4). The above antibiotic activity against dominant pathogens is the clear indication of the potential application of the compound for both agricultural and medical purposes.”

E. coli [2] = assay: agar cup assay, zone of inhibition; conditions: purified compound, 10 μg of the substance
Description: as §1
as §1, with “2-Methylheptylisonicotinate” for “2-Methylheptylisonicotinate of formula”, “(Table” for “(Tables”, “4).” for “4). The above antibiotic activity against dominant pathogens is the clear indication of the potential application of the compound for both agricultural and medical purposes.”

F. oxysporum = assay: agar cup assay, zone of inhibition; conditions: purified compound, 10 μg of the substance
Description: as §1
as §1, with “2-Methylheptylisonicotinate” for “2-Methylheptylisonicotinate of formula”, “(Table” for “(Tables”, “4).” for “4). The above antibiotic activity against dominant pathogens is the clear indication of the potential application of the compound for both agricultural and medical purposes.”

F. semitechtum = assay: agar cup assay, zone of inhibition; conditions: purified compound, 10 μg of the substance
Description: as §1
as §1, with “2-Methylheptylisonicotinate” for “2-Methylheptylisonicotinate of formula”, “(Table” for “(Tables”, “4).” for “4). The above antibiotic activity against dominant pathogens is the clear indication of the potential application of the compound for both agricultural and medical purposes.”

F. solani [3] = assay: agar cup assay, zone of inhibition; conditions: purified compound, 10 μg of the substance
Description: as §1
as §1, with “2-Methylheptylisonicotinate” for “2-Methylheptylisonicotinate of formula”, “(Table” for “(Tables”, “4).” for “4). The above antibiotic activity against dominant pathogens is the clear indication of the potential application of the compound for both agricultural and medical purposes.”

Fusarium moniliforme = assay: agar cup assay, zone of inhibition; conditions: purified compound, 10 μg of the substance
Description: as §1
as §1, with “2-Methylheptylisonicotinate” for “2-Methylheptylisonicotinate of formula”, “(Table” for “(Tables”, “4).” for “4). The above antibiotic activity against dominant pathogens is the clear indication of the potential application of the compound for both agricultural and medical purposes.”

Klebsiella sp. [4] = assay: agar cup assay, zone of inhibition; conditions: purified compound, 10 μg of the substance
Description: as §1
as §1, with “2-Methylheptylisonicotinate” for “2-Methylheptylisonicotinate of formula”, “(Table” for “(Tables”, “4).” for “4). The above antibiotic activity against dominant pathogens is the clear indication of the potential application of the compound for both agricultural and medical purposes.”

Proteus mirabilis [5] = assay: agar cup assay, zone of inhibition; conditions: purified compound, 10 μg of the substance
Description: as §1
as §1, with “2-Methylheptylisonicotinate” for “2-Methylheptylisonicotinate of formula”, “(Table” for “(Tables”, “4).” for “4). The above antibiotic activity against dominant pathogens is the clear indication of the potential application of the compound for both agricultural and medical purposes.”

Rhizoctonia solani [6] = assay: agar cup assay, zone of inhibition; conditions: purified compound, 10 μg of the substance
Description: as §1
as §1, with “2-Methylheptylisonicotinate” for “2-Methylheptylisonicotinate of formula”, “(Table” for “(Tables”, “4).” for “4). The above antibiotic activity against dominant pathogens is the clear indication of the potential application of the compound for both agricultural and medical purposes.”

Shigella sp. [7] = assay: agar cup assay, zone of inhibition; conditions: purified compound, 10 μg of the substance
Description: as §1
as §1, with “2-Methylheptylisonicotinate” for “2-Methylheptylisonicotinate of formula”, “(Table” for “(Tables”, “4).” for “4). The above antibiotic activity against dominant pathogens is the clear indication of the potential application of the compound for both agricultural and medical purposes.”

Rhizoctonia solani [8] = assay: antifungal activity, MIC
F. moniliformae = assay: antifungal activity, MIC
F. solani [9] = assay: antifungal activity, MIC; conditions: Fusarium solani
F. semitectum = assay: antifungal activity, MIC; conditions: Fusarium incarnatum
F. oxysponim = assay: antifungal activity, MIC
Bacillus subtilis [10] = assay: antibacterial activity, MIC
E. coli [11] = assay: antibacterial activity, MIC; conditions: Escherichia coli
Arthrobacter sp. = assay: antibacterial activity, MIC
Proteus mirabilis [12] = assay: antibacterial activity, MIC
Shigella sp. [13] = assay: antibacterial activity, MIC
Klebsiella sp. [14] = assay: antibacterial activity, MIC
[15] = Fusarium oxysporum, read-out: MIC

Row | Compound | MIC (Rhizoctonia solani [8]) [µg/mL] | MIC (F. moniliformae; read-out: MIC) [µg/mL] | MIC (F. solani [9]) [µg/mL] | MIC (F. semitectum) [µg/mL] | MIC (F. oxysponim; [15]) [µg/mL] | MIC (Bacillus subtilis [10]) [µg/mL] | MIC (E. coli [11]) [µg/mL] | MIC (Arthrobacter sp.) [µg/mL] | MIC (Proteus mirabilis [12]) [µg/mL] | MIC (Shigella sp. [13]) [µg/mL] | MIC (Klebsiella sp. [14]) [µg/mL] | further results
1 | CCCCCC(C)COC(=O)c1ccncc1 (stereo not shown) [Compound 1, 2-methylheptylisonicotinate] | 20 (≈ 85 µM) | 45 (≈ 191 µM) | 20 (≈ 85 µM) | 20 (≈ 85 µM) | 43 (≈ 183 µM) | 50 (≈ 212 µM) | 70 (≈ 297 µM) | 40 (≈ 170 µM) | 40 (≈ 170 µM) | 60 (≈ 255 µM) | 50 (≈ 212 µM) | Inhibition zone (Bacillus subtilis [1]): 20 mm; Inhibition zone (E. coli [2]): 30 mm; Inhibition zone (F. oxysporum): 25 mm; Inhibition zone (F. semitechtum): 26 mm; Inhibition zone (F. solani [3]): 26 mm; Inhibition zone (Fusarium moniliforme): 24 mm; Inhibition zone (Klebsiella sp. [4]): 18 mm; Inhibition zone (Proteus mirabilis [5]): 28 mm; Inhibition zone (Rhizoctonia solani [6]): 22 mm; Inhibition zone (Shigella sp. [7]): 20 mm; MIC (F. moniliformae; listed as I): 42 µg/mL (≈ 178 µM); MIC (F. oxysponim; F. oxysponim (F. oxysporum), listed as I): 45 µg/mL (≈ 191 µM)
2 | NNC(=O)c1ccncc1 [Isoniazid, isonicotinic acid hydrazide, reference compound] | 250 (≈ 1820 µM) | 200 (≈ 1460 µM) | 300 (≈ 2190 µM) | 300 (≈ 2190 µM) | 350 (≈ 2550 µM) | 150 (≈ 1090 µM) | 250 (≈ 1820 µM) | 150 (≈ 1090 µM) | 200 (≈ 1460 µM) | 300 (≈ 2190 µM) | 250 (≈ 1820 µM) | –
